Laboratory results reported in US9243254B2, “Method for transforming a bacterium belonging to the streptococcus genus by natural competence” (priority 2009, dated 2016).

Key:
[1] = system: LMD9-Δblp::PcomX-luxABΔshp316::P32-cat; test: Natural transformation in CDM of the shp316-deleted strain upon addition of synthetic peptides (test A); type: cell-based, Streptococcus thermophilus; conditions: 1 μM synthetic peptide; for Transformation rate, With peptide addition: 1 μg/mL pGIUD0855ery, CDM, erythromycin selection; for Restoration of the competence defect: result in words
Procedure: A mutant strain of LMD-9 in which the shp316 gene (which is the gene encoding the peptide Shp316) has been inactivated, such as strain LMD9-Δblp::PcomX-luxABΔshp316::P32-cat (see Example 2 for details on this strain) is pre-cultivated in M17-lactose medium. The cells of the preculture are harvested (5000 g, 9 minutes, 20° C.) and washed twice in Chemically Defined Medium (CDM, see Annex I) and then resuspended in CDM. The washed cells are diluted in fresh CDM medium to obtain an optical density of 0.05 at 600 nm, and then incubated at 37° C. After 1.5 h of incubation, the culture is separated in 2 aliquots of 10 mL and 0 or 1000 nM of peptide are added in the culture samples. Finally, each 10 mL-aliquot is divided in 2 samples of 5 mL each. One of the 2 samples receives 1 μg/mL pGIUD0855ery, a plasmid bearing an erythromycin resistance gene. The competence phenotype of the samples is studied by performing natural transformation experiments as described in example 1. The cultures are grown for 6 hours and serial dilutions are plated on the surface of M17-lactose agar medium containing or not 2.5 μg/mL of erythromycin. The transformation rate in the presence or absence of peptide is calculated for each sample; it is expressed as the ratio of erythromycin-resistant cells among the total bacterial population.
The experimental strategy is described below. Strain LMD9-Δblp::PcomX-luxABΔshp316::P32-cat is precultivated in M17-lactose medium. The cells of the preculture were harvested (5000 g, 9 minutes, 20° C.) and washed twice in CDM and then resuspended in CDM. The washed cells are diluted in fresh CDM to obtain an optical density of 0.05 at 600 nm, and then incubated at 37° C. After 1.5 h of incubation, in one set of experiment, 1 μM of one of the tested synthetic peptides and 1 μg/mL of pGIUD0855ery were added to the culture; whereas 1 μg/mL of pGIUD0855ery but no synthetic peptide was added to the second set of experiment. The cultures were grown during 6 hours and serial dilutions were plated on the surface of M17-lactose agar medium containing 2.5 μg/mL of erythromycin to measure transformation efficiency.
Ability of peptides derived from Shp316 to restore the competence defect of LMD9-Δblp::PcomX-luxABΔshp316::P32-cat was further investigated focusing on the synthetic peptide PYFAGCL. Experimental work was performed as described above except that various concentrations of PYFAGCL were used: 0 nM, 1 nM, 10 nM, 100 nM, 500 nM, 1 μM, 2.5 μM and 5 μM. […]

S. thermophilus CNRZ1066 = test: Natural transformation in CDM upon addition of synthetic peptide; type: cell-based, Streptococcus thermophilus
Procedure: (§1) Similarly to the protocol used in example 4, strains LMD-9, LMG18311, CNRZ1066 and JIM8777 were pre-cultivated in M17-lactose medium. The cells of the precultures were harvested (5000 g, 9 minutes, 20° C.) and washed twice in CDM and then resuspended in CDM. The washed cells were diluted in fresh CDM medium to obtain an optical density of 0.05, and then incubated at 37° C. After 1.5 h of incubation, in one set of experiment, 1 μM of one of the tested synthetic peptides and 1 μg/mL of pGIUD0855ery DNA (in case of S. thermophilus strains), or 1 μg/ml of pG+host09 DNA (in case of S. salivarius strains) were added to the culture, whereas 1 μg/mL of DNA but no synthetic peptide was added to the second set of experiment. The cultures were grown during 6 hours and serial dilutions were plated on the surface of M17-lactose agar medium containing 2.5 μg/mL of erythromycin to measure transformation efficiency. Transformed S. thermophilus and S. salivarius cells are selected at 37° C. and 29° C., respectively.
Similarly to the protocol used in example 4, various S. thermophilus strains, including LMD-9, CNRZ1066 and LMG18311 used as controls, were pre-cultivated in M17-lactose medium. The cells of the precultures were harvested (5000 g, 9 minutes, 20° C.) and washed twice in CDM and then resuspended in CDM. The washed cells were diluted in fresh CDM medium to obtain an optical density of 0.05, and then incubated at 37° C. After 1.5 h of incubation, in one set of experiment, 1 μM of one of the tested synthetic peptides (LPYFAGCL) (SEQ ID NO: 85) and 1 μg/mL of pGIUD0855cat DNA were added to the culture, whereas 1 μg/mL of DNA but no synthetic peptide was added to the second set of experiment. Plasmid pGIUD0855cat is a pUC18-derivative containing a chloramphenicol resistance cassette flanked by 1-kb fragments corresponding to the upstream and downstream regions of stu0855. Upon transformation, it promotes the genetic replacement of stu0855 by P32-cat through homologous recombination (FIG. 7). The cultures were grown during 6 hours and serial dilutions were plated on the surface of M17-lactose agar medium containing 5 μg/mL of chloramphenicol to measure transformation efficiency. Transformed S. thermophilus cells were selected at 37° C.; when transformants were obtained, the transformation efficiency was calculated and is given in Table 9.
Day 2: • Centrifuge Day 1—culture (centrifugation parameters: 5000 g, 9 minutes, 15° C.) and perform two washing steps with one volume (10 mL) of CDM (centrifugation parameters: 5000 g, 9 minutes, 15° C.). • Dilute the culture in 10 mL CDM to obtain an OD600nm of 0.05. • A small volume of S. thermophilus cultures (300 μL) is then transferred in white microplate with a transparent bottom (655095; Greiner, Alphen aid Rijn, The Netherlands) and is grown at 37° C. Luminescence at 595 nm and optical density at 600 nm are recorded with the automatic Synergy HT multi-mode microplate reader. The luciferase activity catalysed by LuxAB requires the presence of nonanal as substrate. In this experimental set-up, nonanal (Acros Organics ref. 204-688-5) is supplied to the cultures by placing 50 μL of a solution containing 1% nonanal diluted in mineral oil in the spaces between the wells of a covered microplate (11). […] The luminescence and absorbance are scanned every 10 minutes during 6 hours. • To perform a competence experiment, 1 μg of donor DNA is added in the 300 μL samples in the beginning of incubation. […]

S. salivarius JIM8777 = test: as above; type: cell-based, Streptococcus salivarius
Procedure: as §1
Day 2: • Centrifuge Day 1—culture (centrifugation parameters: 5000 g, 9 minutes, 15° C.) and perform two washing steps with one volume (10 mL) of CDM (centrifugation parameters: 5000 g, 9 minutes, 15° C.). • Dilute the culture in 10 mL CDM to obtain an OD600nm of 0.05. • A small volume of S. thermophilus cultures (300 μL) is then transferred in white microplate with a transparent bottom (655095; Greiner, Alphen aid Rijn, The Netherlands) and is grown at 37° C. Luminescence at 595 nm and optical density at 600 nm are recorded with the automatic Synergy HT multi-mode microplate reader. The luciferase activity catalysed by LuxAB requires the presence of nonanal as substrate. In this experimental set-up, nonanal (Acros Organics ref. 204-688-5) is supplied to the cultures by placing 50 μL of a solution containing 1% nonanal diluted in mineral oil in the spaces between the wells of a covered microplate (11). The nonanal present in the solution will become volatile and there will be an equilibrium between the concentration of nonanal present in the air and in the culture samples. The luminescence and absorbance are scanned every 10 minutes during 6 hours. • To perform a competence experiment, 1 μg of donor DNA is added in the 300 μL samples in the beginning of incubation. […] In case of the sample that received DNA, make different 10-fold dilutions of the sample and plate 100 μL on the same solid selective medium. Check the viability of the cells in the samples by plating 10 μL of serial 10-fold dilutions of the cultures on M17, lactose 1% medium. Transformants are picked following 24 h of incubation at 37° C. in anaerobic conditions (gaspak BBL). […]

[2] = 1 μM PYFTGCL, 1 μg/mL pG+host09

| Substance | Transformation rate, With peptide addition [1] | also measured |
| --- | --- | --- |
| AILPYFAGC (fragment) [synthetic peptide, fragment of Shp316 without the carboxy-terminal leucine] | <10^−8 | – |
| AILPYFAGCL (fragment) [synthetic peptide corresponding to a C-terminal fragment of Shp316] | 2.21 × 10^−3 | Restoration of the competence defect [1]: allowed to restore the competence defect |
| ILPYFAG (fragment) [synthetic peptide corresponding to a fragment of Shp316 without the C-terminal CL] | <10^−8 | – |
| ILPYFAGC (fragment) [synthetic peptide, fragment of Shp316 without the carboxy-terminal leucine] | <10^−8 | – |
| ILPYFAGCL (fragment) [synthetic peptide corresponding to a C-terminal fragment of Shp316] | 3.42 × 10^−3 | Restoration of the competence defect [1]: allowed to restore the competence defect |
| LPYFAGC (fragment) [synthetic peptide, fragment of Shp316 without the carboxy-terminal leucine] | <10^−8 | – |
| PYFAG (fragment) [synthetic peptide corresponding to a fragment of Shp316 without the C-terminal CL] | <10^−8 | – |
| PYFAGC (fragment) [synthetic peptide, fragment of Shp316 without the carboxy-terminal leucine] | <10^−8 | – |
| PYFTGCL (fragment) [alanine in position 4 replaced by threonine] | – | Transformation rate, With peptide addition (S. thermophilus CNRZ1066; [2]): 3.48 × 10^−7; Complementation of the transformation defect in CDM (S. thermophilus CNRZ1066; 1 μM peptide, result in words): able to complement the transformation defect; Transformation rate, With peptide addition (S. salivarius JIM8777; [2]): 5.77 × 10^−7; Complementation of the transformation defect in CDM (S. salivarius JIM8777; 1 μM peptide, result in words): able to complement the transformation defect |
